Results reported in PubChem BioAssay (NCI).
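96-well plates; 48 h exposure; 5 concentrations. Endpoints by linear interpolation between flanking doses. Not reached: highest tested concentration assigned. The concentration for 50% growth inhibition is given as GI50. TGI denotes the concentration required for complete inhibition of growth.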

Tests used:
Test in all cases: inhibition of tumour cell growth, NCI panel, 48 h
HOP-92 NSCLC = test system: HOP-92 NSCLC
KM12 colon = test system: KM12 colon
LOX IMVI melanoma = test system: LOX IMVI melanoma
M14 melanoma = test system: M14 melanoma
MALME-3M melanoma = test system: MALME-3M melanoma
OVCAR-8 ovarian = test system: OVCAR-8 ovarian
RPMI-8226 leukemia = test system: RPMI-8226 leukemia
SK-MEL-5 melanoma = test system: SK-MEL-5 melanoma
UACC-62 melanoma = test system: UACC-62 melanoma
SR leukemia = test system: SR leukemia

| Compound | GI50 (HOP-92 NSCLC) | TGI (HOP-92 NSCLC) | GI50 (KM12 colon) | TGI (KM12 colon) | GI50 (LOX IMVI melanoma) | TGI (LOX IMVI melanoma) | GI50 (M14 melanoma) | TGI (M14 melanoma) | GI50 (MALME-3M melanoma) | TGI (MALME-3M melanoma) | GI50 (OVCAR-8 ovarian) | TGI (OVCAR-8 ovarian) | GI50 (RPMI-8226 leukemia) | TGI (RPMI-8226 leukemia) | GI50 (SK-MEL-5 melanoma) | TGI (SK-MEL-5 melanoma) | GI50 (UACC-62 melanoma) | TGI (UACC-62 melanoma) | TGI (SR leukemia) |
| --- | --- | --- | --- | --- | --- | --- | --- | --- | --- | --- | --- | --- | --- | --- | --- | --- | --- | --- | --- |
| [O-]c1ccccc1[C-]=Nc1ccccc1O.[O-]c1ccccc1[C-]=Nc1ccccc1O.[O]=[U]=[O] | 8.4 µM | 35.2 µM | 6.35 µM | > 100 µM | 9.82 µM | 68 µM | 10.2 µM | 41.7 µM | 12.8 µM | 30.1 µM | 14.8 µM | 66.7 µM | 1590 nM | 49.5 µM | 8.38 µM | 43 µM | 10.4 µM | 31.1 µM | – |
| CN1CCN2c3ccccc3CC(C#N)(C#N)C2C1 (centres undefined) | – | > 100 µM | – | > 100 µM | – | > 100 µM | – | > 100 µM | – | > 100 µM | – | > 100 µM | – | > 100 µM | – | > 100 µM | – | > 100 µM | – |
| CC1(OCc2ccccc2)C(=O)N2C1N(C(=O)OCc1ccccc1)CC2(C)C (centres undefined) | – | – | – | – | – | > 100 µM | – | > 100 µM | – | > 100 µM | – | > 100 µM | – | 95.7 µM | – | 33.5 µM | – | > 100 µM | 95 µM |
| Nc1ncnc2c1ncn2C1OC(CO)CC1O (centres undefined) | – | > 100 µM | – | > 100 µM | – | 70.8 µM | – | > 100 µM | – | – | – | 49.6 µM | – | – | – | > 100 µM | – | > 100 µM | > 100 µM |
| O=C1C2c3[nH]c4ccccc4c3C3CCC(c4ccccc4)CC3C2C(=O)N1c1ccccc1 (centres undefined) | – | – | – | > 100 µM | – | > 100 µM | – | > 100 µM | – | > 100 µM | – | > 100 µM | – | > 100 µM | – | > 100 µM | – | > 100 µM | > 100 µM |
| N#CC1=C(c2ccccc2)NN(Cc2ccccc2)C(c2ccc(Cl)cc2)CC1=O (centres undefined) | – | 45.1 µM | – | 82.1 µM | – | 41.8 µM | – | – | – | – | – | – | – | 64.8 µM | – | > 100 µM | – | – | > 100 µM |
| CC(=O)CC(=O)ON(C)C(C)=O | – | – | – | > 100 µM | – | > 100 µM | – | > 100 µM | – | > 100 µM | – | > 100 µM | – | > 100 µM | – | > 100 µM | – | > 100 µM | > 100 µM |
| CCOC(=O)NC(=O)c1cn(CC(=O)NCC(=O)NCC(=O)N2CCN(CCn3c(C)nc(C(N)=O)c3N)CC2)c(=O)[nH]c1=O | – | > 100 µM | – | > 100 µM | – | > 100 µM | – | > 100 µM | – | > 100 µM | – | > 100 µM | – | – | – | > 100 µM | – | > 100 µM | > 100 µM |
| Clc1cc2nc[nH]c2cc1Cl | – | > 100 µM | – | > 100 µM | – | > 100 µM | – | > 100 µM | – | > 100 µM | – | > 100 µM | – | > 100 µM | – | – | – | > 100 µM | – |
| COc1ccc(-c2cc(=O)c3c(OC)c(O)c(OC)cc3o2)cc1 | – | 89.6 µM | – | – | – | > 100 µM | – | > 100 µM | – | > 100 µM | – | > 100 µM | – | 99.3 µM | – | 94.9 µM | – | > 100 µM | > 100 µM |
| COc1ccc(C(=C(C#N)C#N)c2ccc(OC)cc2)cc1 | – | – | – | > 100 µM | – | > 100 µM | – | > 100 µM | – | – | – | > 100 µM | – | > 100 µM | – | – | – | > 100 µM | > 100 µM |
| CC(C)(C)n1nc(C2CC2)cc1NC(=O)Nc1ccc(Cl)cc1 | – | > 100 µM | – | > 100 µM | – | > 100 µM | – | > 100 µM | – | > 100 µM | – | > 100 µM | – | > 100 µM | – | > 100 µM | – | > 100 µM | – |
